These are literature values, as cited in US20070293479A1, “OLANZAPINE PHARMACEUTICAL COMPOSITION” (priority 2006, published 2007).

The conditions of this data set: free base, at pH 6.8.

`Cc1cc2c(s1)Nc1ccccc1N=C2N1CCN(C)CC1` [Olanzapine]: the solubility result is “about 0.02 mg/ml”.
